# Assay results as given in US20250059205A1, “Heterocyclic Compounds and Methods of Use” (AMGEN INC., priority 2021, published 2025).
# Legend:
# [1] = system: Phosphorylation of ERK1/2 in A-427 cells; assay: Phospho-ERK1/2 MSD Assay (A-427 cells); type: cell-based; details: Homo sapiens, A-427, 2 h, 2 h treatment, read-out: p-ERK (A427 cells) IC50
# Procedure, shortened: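 ERK1/2 phosphorylation measured by Meso Scale whole-cell lysate assay after A-427 cells were exposed to a titration of compound for 2 h at 37 °C.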
# [2] = target: His-tagged KRAS G12D protein (Homo sapiens, UniProt P01116, G12D); assay: KRAS G12D TR-FRET Assay; type: binding
# [3] = target: GDP-bound KRAS protein (aa 1-169), containing both G12D and C118A amino acid substitutions (Homo sapiens, UniProt P01116, C118A/G12D); assay: KRAS G12D Coupled Nucleotide Exchange Assay; type: biochemical; details: 2 h compound pre-incubation
# Experimental: Following compound pre-incubation, purified SOS protein (aa 564-1049) and GTP (Roche 10106399001) were added to the assay wells and incubated for an additional 30 min. […] The assay plates were then read on a PerkinElmer EnVision Multilabel Reader, using AlphaScreen® technology, and data were analyzed using a 4-parameter logistic model to calculate IC50 values.
# [4] = system: Phosphorylation of ERK1/2 in AsPC-1 cells; assay: Phospho-ERK1/2 MSD Assay (AsPC-1 cells); type: cell-based; details: Homo sapiens, ASPC1, 2 h, 2 hours treatment, read-out: p-ERK (AsPC-1 cells) IC50
# Procedure, shortened: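 Read-out: MSD electrochemiluminescent detection of phosphorylated ERK1/2 in whole-cell lysates, fitted to a 4-parameter logistic curve for IC50. Prior to lysis, AsPC-1 cells (25,000 per well) received a 2 h compound dose-response at 37 °C.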
# Sequence of His-tagged KRAS G12D protein (P01116 1-188 isoform P01116-2 G12D): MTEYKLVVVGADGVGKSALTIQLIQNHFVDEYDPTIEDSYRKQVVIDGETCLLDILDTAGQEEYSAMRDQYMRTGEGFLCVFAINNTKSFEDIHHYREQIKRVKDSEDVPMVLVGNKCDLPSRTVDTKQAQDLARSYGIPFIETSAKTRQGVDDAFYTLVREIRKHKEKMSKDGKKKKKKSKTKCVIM
# Sequence of GDP-bound KRAS protein (aa 1-169), containing both G12D and C118A amino acid substitutions (P01116 1-169 isoform P01116-2 G12D/C118A): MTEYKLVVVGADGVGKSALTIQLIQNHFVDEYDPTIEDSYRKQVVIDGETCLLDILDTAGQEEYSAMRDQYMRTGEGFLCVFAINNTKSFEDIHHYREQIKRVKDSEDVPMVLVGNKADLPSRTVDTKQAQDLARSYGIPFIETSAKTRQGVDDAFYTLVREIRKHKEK
structure (smiles),measurement,setting,value
"CC(C)(O)COc1nc(N2C[C@H]3CC[C@@H](C2)N3)c2cc(F)c(-c3cc(O)cc4ccccc34)c(F)c2n1 [Example 64, 4-(4-((1R,5S)-3,8-diazabicyclo[3.2. 1]octan-3-yl)-6,8-difluoro-2-(2-hydroxy-2-methylpropoxy)quinazolin-7-yl)naphthalen-2-ol]",IC50,[1],5050 nM
same,IC50,[2],51 nM
same,Avg 2 h Coupled Exchange IC50,[3],17 nM
same,IC50,[4],7030 nM
"CCc1c(F)ccc2cc(O)cc(-c3c(F)cc4c(N5C[C@H]6CC[C@@H](C5)N6)nc(OCC(C)(C)O)nc4c3F)c12 [Example 65, 4-(4-((1R,5S)-3,8-diazabicyclo[3.2. 1]octan-3-yl)-6,8-difluoro-2-(2-hydroxy-2-methylpropoxy)quinazolin-7-yl)-5-ethyl-6-fluoronaphthalen-2-ol]",IC50,[1],699 nM
same,IC50,[2],7 nM
same,Avg 2 h Coupled Exchange IC50,[3],8 nM
same,IC50,[4],547 nM
"CCc1cccc2cccc(-c3c(F)cc4c(N5C[C@H]6CC[C@@H](C5)N6)nc(OC[C@@]56CCCN5C[C@H](F)C6)nc4c3F)c12 [Example 68, 4-((1R,5S)-3,8-diazabicyclo[3.2. 1]octan-3-yl)-7-(8-ethylnaphthalen-1-yl)-6,8-difluoro-2-(((2R,7aS)-2-fluorotetrahydro-1H-pyrrolizin-7a(5H)-yl)methoxy) quinazoline]",IC50,[1],732 nM
same,IC50,[2],4 nM
same,Avg 2 h Coupled Exchange IC50,[3],3 nM
same,IC50,[4],658 nM
"CCc1c(F)ccc2cccc(-c3c(F)cc4c(N5C[C@H]6CC[C@@H](C5)N6)nc(OC[C@@]56CCCN5C[C@H](F)C6)nc4c3F)c12 [Example 69, 4-((1R,5S)-3,8-diazabicyclo[3.2. 1]octan-3-yl)-7-(8-ethyl-7-fluoronaphthalen-1-yl)-6,8-difluoro-2-(((2R,7aS)-2-fluorotetrahydro-1H-pyrrolizin-7a(5H)-yl)methoxy) quinazoline]",IC50,[1],1000 nM
same,IC50,[2],4 nM
same,Avg 2 h Coupled Exchange IC50,[3],2 nM
same,IC50,[4],514 nM
"Oc1cc(-c2c(F)cc3c(N4C[C@H]5CC[C@@H](C4)N5)nc(OC[C@@]45CCCN4C[C@H](F)C5)nc3c2F)c2c(Cl)cccc2c1 [Example 70, 4-(4-((1R,5S)-3,8-diazabicyclo[3.2. 1]octan-3-yl)-6,8-difluoro-2-(((2R,7aS)-2-fluorotetrahydro-1H-pyrrolizin-7a(5H)-yl)methoxy)quinazolin-7-yl)-5-chloronaphthalen-2-ol]",IC50,[1],12 nM
same,IC50,[2],3 nM
same,Avg 2 h Coupled Exchange IC50,[3],7 nM
same,IC50,[4],49 nM
"CCc1cccc2cccc(-c3c(Cl)cc4c(N5C[C@H]6CC[C@@H](C5)N6)nc(OC[C@@]56CCCN5C[C@H](F)C6)nc4c3F)c12 [Example 71, 4-((1R,5S)-3,8-diazabicyclo[3.2. 1]octan-3-yl)-6-chloro-7-(8-ethylnaphthalen-1-yl)-8-fluoro-2-(((2R,7aS)-2-fluorotetrahydro-1H-pyrrolizin-7a(5H)-yl)methoxy) quinazoline]",IC50,[1],4790 nM
same,IC50,[2],38 nM
same,Avg 2 h Coupled Exchange IC50,[3],50 nM
same,IC50,[4],3360 nM
"CCc1cccc2cccc(-c3cc4nc(OC[C@@]56CCCN5C[C@H](F)C6)nc(N5C[C@H]6CC[C@@H](C5)N6)c4cc3F)c12 [Example 72, 4-((1R,5S)-3,8-diazabicyclo[3.2. 1]octan-3-yl)-7-(8-ethylnaphthalen-1-yl)-6-fluoro-2-(((2R,7aS)-2-fluorotetrahydro-1H-pyrrolizin-7a(5H)-yl)methoxy) quinazoline]",IC50,[1],2680 nM
same,IC50,[2],23 nM
same,Avg 2 h Coupled Exchange IC50,[3],18 nM
same,IC50,[4],2600 nM
"Cc1c(Cl)cc2[nH]ncc2c1-c1c(Cl)cc2c(N3C[C@H]4CC[C@@H](C3)N4)nc(OC[C@@]34CCCN3C[C@H](F)C4)nc2c1F [Example 73, 4-((1R,5S)-3,8-diazabicyclo[3.2. 1]octan-3-yl)-6-chloro-7-(6-chloro-5-methyl-1H-indazol-4-yl)-8-fluoro-2-(((2R,7aS)-2-fluorotetrahydro-1H-pyrrolizin-7a(5H)-yl)methoxy) quinazoline]",IC50,[1],422 nM
same,IC50,[2],15 nM
same,Avg 2 h Coupled Exchange IC50,[3],17 nM
same,IC50,[4],715 nM
"Cc1c(Cl)cc2[nH]ncc2c1-c1c(F)cc2c(N3C[C@H]4CC[C@@H](C3)N4)nc(OC[C@@]34CCCN3C[C@H](F)C4)nc2c1F [Example 74, 4-((1R,5S)-3,8-diazabicyclo[3.2. 1]octan-3-yl)-7-(6-chloro-5-methyl-1H-indazol-4-yl)-6,8-difluoro-2-(((2R,7aS)-2-fluorotetrahydro-1H-pyrrolizin-7a(5H)-yl)methoxy) quinazoline]",IC50,[1],148 nM
same,IC50,[2],7 nM
same,Avg 2 h Coupled Exchange IC50,[3],7 nM
same,IC50,[4],386 nM
"Cc1cc2[nH]ncc2c(-c2c(F)cc3c(N4C[C@H]5CC[C@@H](C4)N5)nc(OC[C@@]45CCCN4C[C@H](F)C5)nc3c2F)c1Cl [Example 75, 4-((1R,5S)-3,8-diazabicyclo[3.2. 1]octan-3-yl)-7-(5-chloro-6-methyl-1H-indazol-4-yl)-6,8-difluoro-2-(((2R,7aS)-2-fluorotetrahydro-1H-pyrrolizin-7a(5H)-yl)methoxy) quinazoline]",IC50,[1],139 nM
same,IC50,[2],5 nM
same,Avg 2 h Coupled Exchange IC50,[3],3 nM
same,IC50,[4],297 nM
"Cc1ccc2cnn(C)c2c1-c1c(Cl)cc2c(N3C[C@H]4CC[C@@H](C3)N4)nc(OC[C@@]34CCCN3C[C@H](F)C4)nc2c1F [Example 76, 4-((1R,5S)-3,8-diazabicyclo[3.2. 1]octan-3-yl)-6-chloro-7-(1,6-dimethyl-1H-indazol-7-yl)-8-fluoro-2-(((2R,7aS)-2-fluorotetrahydro-1H-pyrrolizin-7a(5H)-yl)methoxy) quinazoline]",IC50,[1],191 nM
same,IC50,[2],10 nM
same,Avg 2 h Coupled Exchange IC50,[3],8 nM
same,IC50,[4],674 nM
"Oc1cc(-c2ccc3c(N4C[C@H]5CC[C@@H](C4)N5)nc(OC[C@@]45CCCN4C[C@H](F)C5)nc3c2)c2c(F)c(F)ccc2c1 [Example 77, 4-(4-((1R,5S)-3,8-diazabicyclo[3.2. 1]octan-3-yl)-2-(((2R,7aS)-2-fluorotetrahydro-1H-pyrrolizin-7a(5H)-yl)methoxy)quinazolin-7-yl)-5,6-difluoronaphthalen-2-ol]",IC50,[1],38 nM
same,IC50,[2],3 nM
same,Avg 2 h Coupled Exchange IC50,[3],2 nM
same,IC50,[4],62 nM
"Fc1c(-c2cc(Cl)cc3ccccc23)c(Cl)cc2c(N3C[C@H]4CC[C@@H](C3)N4)nc(OC[C@@]34CCCN3C[C@H](F)C4)nc12 [Example 78, 4-((1R,5S)-3,8-diazabicyclo[3.2. 1]octan-3-yl)-6-chloro-7-(3-chloronaphthalen-1-yl)-8-fluoro-2-(((2R,7aS)-2-fluorotetrahydro-1H-pyrrolizin-7a(5H)-yl)methoxy) quinazoline]",IC50,[1],> 10000 nM
same,IC50,[2],226 nM
same,Avg 2 h Coupled Exchange IC50,[3],90 nM
same,IC50,[4],6030 nM
"Fc1c(-c2ccc(Cl)c3ccccc23)c(Cl)cc2c(N3C[C@H]4CC[C@@H](C3)N4)nc(OC[C@@]34CCCN3C[C@H](F)C4)nc12 [Example 79, 4-((1R,5S)-3,8-diazabicyclo[3.2. 1]octan-3-yl)-6-chloro-7-(4-chloronaphthalen-1-yl)-8-fluoro-2-(((2R,7aS)-2-fluorotetrahydro-1H-pyrrolizin-7a(5H)-yl)methoxy) quinazoline]",IC50,[1],> 10000 nM
same,IC50,[2],26 nM
same,Avg 2 h Coupled Exchange IC50,[3],26 nM
same,IC50,[4],3430 nM
"Oc1ccc(-c2c(Cl)cc3c(N4C[C@H]5CC[C@@H](C4)N5)nc(OC[C@@]45CCCN4C[C@H](F)C5)nc3c2F)c2ccccc12 [Example 80, 4-(4-((1R,5S)-3,8-diazabicyclo[3.2. 1]octan-3-yl)-6-chloro-8-fluoro-2-(((2R,7aS)-2-fluorotetrahydro-1H-pyrrolizin-7a(5H)-yl)methoxy)quinazolin-7-yl)naphthalen-1-ol]",IC50,[1],649 nM
same,IC50,[2],10 nM
same,Avg 2 h Coupled Exchange IC50,[3],4 nM
same,IC50,[4],607 nM
"Oc1cc(-c2c(Cl)cc3c(N4C[C@H]5CC[C@@H](C4)N5)nc(OC[C@@]45CCCN4C[C@H](F)C5)nc3c2F)c2c(F)c(F)ccc2c1 [Example 81, 4-(4-((1R,5S)-3,8-diazabicyclo[3.2. 1]octan-3-yl)-6-chloro-8-fluoro-2-(((2R,7aS)-2-fluorotetrahydro-1H-pyrrolizin-7a(5H)-yl)methoxy)quinazolin-7-yl)-5,6-difluoronaphthalen-2-ol]",IC50,[1],30 nM
same,IC50,[2],3 nM
same,Avg 2 h Coupled Exchange IC50,[3],4 nM
same,IC50,[4],99 nM
"Oc1cc(-c2cc3nc(OC[C@@]45CCCN4C[C@H](F)C5)nc(N4C[C@H]5CC[C@@H](C4)N5)c3cc2F)c2c(F)c(F)ccc2c1 [Example 82, 4-(4-((1R,5S)-3,8-diazabicyclo[3.2. 1]octan-3-yl)-6-fluoro-2-(((2R,7aS)-2-fluorotetrahydro-1H-pyrrolizin-7a(5H)-yl)methoxy)quinazolin-7-yl)-5,6-difluoronaphthalen-2-ol]",IC50,[1],42 nM
same,IC50,[2],2 nM
same,Avg 2 h Coupled Exchange IC50,[3],2 nM
same,IC50,[4],138 nM
